Values of other authors in EP0665714B1, “GRANULAR WATER SOLUBLE OR HYGROSCOPIC AGRICULTURAL FORMULATIONS AND METHODS OF MAKING THEM” (BASF CORPORATION, priority 1992, dated 1994).

Conditions: in general

SMILES: C[N+]1(C)CCCCC1.[Cl-] [mepiquat chloride, 1,1-dimethylpiperidinium chloride]
- water solubility: more than 600 g/l
